{
  "source": "patent US20220265657A1",
  "about": "“ADMINISTRATION METHOD AND DOSAGE REGIMEN FOR TREATMENT OF NEURODEGENERATIVE DISEASES USING TRAMETINIB AND MARKERS” (GENUV INC., priority 2019, published 2022)",
  "system": "5XFAD mice",
  "conditions": "for decrease of plasma cathepsin B level compared to vehicle treated 5XFAD mice: 8-month-old 5XFAD mice, 3 months oral",
  "note": "Like-named read-outs stand apart in the source and are kept apart here.",
  "data": [
    {"smiles": "CC(=O)Nc1cccc(-n2c(=O)n(C3CC3)c(=O)c3c(Nc4ccc(I)cc4F)n(C)c(=O)c(C)c32)c1", "note": "[trametinib]", "values": [
      {"measurement": "decrease of plasma cathepsin B level compared to vehicle treated 5XFAD mice", "setting": "0.05 mg/kg/day", "result": 56.16, "unit": "%"},
      {"measurement": "decrease of plasma cathepsin B level compared to vehicle treated 5XFAD mice", "setting": "0.1 mg/kg/day", "result": 99.2, "unit": "%"},
      {"measurement": "plasma cathepsin B level compared to 5XFAD-vehicle group", "setting": "13-month-old 5XFAD mice, 0.1 mg/kg/day, 1 month oral", "result": "decreasing trend"}
    ]}
  ]
}
